Experimental data published in article PMC8296985, “A Covalent Calmodulin Inhibitor as a Tool to Study Cellular Mechanisms of K-Ras-Driven Stemness” (Frontiers in Cell and Developmental Biology, 2021).
Read-outs that look alike come from different tables or passages of the source.

Columns and labels:
MDA-MB-231 = assay: 3D spheroid (tumorosphere) formation assay, low attachment, serum-free, alamarBlue; assay type: cell-based; settings: for IC50: Homo sapiens; for KRAS/HRAS mutant cell line DSS3 ratio: MDA-MB-231 vs Hs 578T 3D spheroid formation, 0.6–40 μM, numbers above bars Fig. 1A,B
Experimental: (§1) 3D spheroid formation assays were performed in 96-well low-attachment, suspension culture plates (cat. no. 655185, Cellstar, Greiner Bio-One) under serum-free condition. About 1,000 (MDA-MB-231, NCI-H358, and MIA PaCa-2) or 2,500 (Hs 578T) cells per well were seeded in 50 μl of either an RPMI medium (cat. no. 52400-025, Gibco, Thermo Fisher Scientific) (MDA-MB-231, A375, and NCI-H358) or DMEM (cat. no. 41965-039, Gibco, Thermo Fisher Scientific) (Hs 578T and MIA PaCa-2), containing 0.5% MethoCult (cat. no. SF H4636, Stemcell technologies), 1x B27 (cat. no. 17504044, Gibco, Thermo Fisher Scientific), 25 ng/ml EGF (cat. no. E9644, Sigma-Aldrich), and 25 ng/ml FGF (cat. no. RP-8628, Thermo Fisher Scientific). Cells were cultured for 3 days and then treated with compounds or vehicle control (DMSO 0.1% v/v in growth medium) for another 3 days. The cells were supplemented with a fresh growth medium on the third day together with the drug treatment. For knockdown experiments, cells were seeded in 12-well plates and treated with either 50 nM scrambled siRNA (cat. no. 1022076, QIAGEN) or indicated concentrations of siRNAs. Next day, cells were collected by trypsinization and re-plated into 96-well plates for 3D spheroid suspension culture.
(§2) Spheroid formation efficiency was analyzed by an alamarBlue assay reagent (cat. no. DAL1100, Thermo Fisher Scientific). A 10% final volume of the alamarBlue reagent was added to each well of the plate and incubated for 4 h at 37°C. Then the fluorescence intensity was measured using the FLUOstar OPTIMA plate reader (BMG Labtech, Germany) with an excitation wavelength of 560 ± 5 nm and an emission wavelength of 590 ± 5 nm.
(§3) To quantitatively profile the drug sensitivity with a more robust parameter than the IC50 or EC50 values, the drug sensitivity score (DSS) analysis was employed. DSS values are essentially normalized area under the curve (AUC) measures of dose-response inhibition data ([Yadav et al., 2014]). Drug response data files (in Excel) ready for online analysis were prepared according to the example file obtained from the DSS pipeline website, called Breeze^1 ([Potdar et al., 2020]). Either raw fluorescence intensity measurements or normalized % inhibition data (for BRET assay analysis) were uploaded.
(§4) DSS3 was employed to emphasize drugs that obtain their response area over a relatively wide dose window, as compared to drugs that show increased response only at the higher end of the concentration range. After logistic fitting of the dose-response inhibition data, the area under the curve (AUC) was determined as the exact solution. A 10% minimal activity threshold (t) was set. The maximum (Cmax) and minimum (Cmin) concentrations were used for screening of the inhibitors, with Cmax = x2 and x1 concentration with minimal activity t.

Hs 578T = assay: as above; assay type: cell-based; settings: for IC50: Homo sapiens
Experimental: as §1, §2, §3, §4

calmodulin (CaM) = calmodulin (CaM) (Bos taurus, UniProt P62157); assay: Fluorescence polarization assay, displacement of F-PMCA peptide from CaM; settings: for kinact/KI: read-out: k2/Ki second-order rate constant
Experimental: Compounds were threefold-diluted in an assay buffer (20 mM Tris Cl pH 7.5, 50 mM NaCl, 1 mM CaCl2, and 0.005% Tween 20), and a complex of 100 nM CaM and 10 nM F-PMCA peptide was added. […] Then the plate was incubated overnight at 4°C, and the next day, final readings were taken after a total of 24 h incubation. The fluorescence anisotropy was calculated and plotted against the logarithm of the compound concentration and fit to the log inhibitor vs. response–variable slope (four parameters) equation in Prism (GraphPad).
The potency and selectivity of a covalent inhibitor are governed by two parameters, namely, Ki, the dissociation constant of the initial non-covalent complex, and k2, the rate of the subsequent covalent bond-forming reaction as given in the chemical equation
E and I denote a protein target and its covalent inhibitor, respectively. E ⋅ I is the initial non-covalent complex, and E – I is the final covalent complex. […] This was repeated for several inhibitor concentrations. Then, kobs was plotted against the concentration of the inhibitor, and the data were fit to a hyperbolic equation kobs=k2×[I]/Ki+[I] to obtain Ki and k2. The ratio of k2/Ki represents the second-order rate constant of the reaction of the covalent inhibitor with the target.

[1] = tested on: NCI-H358, MIA PaCa-2, MDA-MB-231 and A375 3D spheroids; assay: 3D spheroid growth benchmarking, DSS3, alamarBlue; assay type: cell-based; settings: spheroids grown 72 h then treated 72 h
Experimental: as §1, §2, §3, §4

K-RasG12V = K-RasG12V nanoclustering-BRET assay in HEK293-EBNA cells; assay type: cell-based; settings: mevastatin 10 μM; for K-Ras selective reduction of nanoclustering-BRET (K-Ras vs H-Ras): 24 h, calmidazolium 20 μM, OphA 2.5 μM, prostratin 10 μM, benzazulenones 20 μM
Experimental: (§5) BRET assays were essentially performed as described by others ([Lavoie et al., 2013]; [Bery et al., 2018]). About 100,00–150,000 HEK293-EBNA ([Meissner et al., 2001]) cells were seeded per well of a 12-well plate in 1 ml of DMEM containing 10% FBS and 2 mM L-glutamine and were grown for 24 h. Next day, Rluc8-tagged donor and GFP2-tagged acceptor constructs were transfected into cells using a jetPRIME transfection reagent (cat. no. 114-75, Polyplus). Each well was transfected with about 1 μg of plasmid DNA using 3 μl of the jetPRIME reagent. For BRET donor saturation titration experiments, the concentration of donor plasmid (25 ng) was kept constant, and the concentration of acceptor plasmid was increased from 0 to 500 ng for RasG12V BRET pairs and 0–1,000 ng for K-Ras/CaM BRET pairs. The empty pcDNA3.1(-) plasmid was used to top-up the total DNA load per transfection. After 24 h of transfection, cells were treated with compounds or vehicle control (DMSO 0.2% v/v in a growth medium) at the specified concentration for 24 h or the stipulated time period in case of the time-course experiments. The cells from one well of a 12-well plate were collected, washed, and re-plated in PBS (cat. no. 14190-094, Gibco, Thermo Fisher Scientific) on flat bottom, white 96-well plates (cat. no. 236108, Nunc, Thermo Fisher Scientific) as four technical replicates containing 90 μl of cell suspension per well. Then fluorescence intensity followed by BRET readings were carried out on a Clariostar (BMG Labtech) plate reader at 25°C. The fluorescence intensity (RFU) of GFP2 was measured with excitation at 405 ± 10 nm and emission 515 ± 10 nm; it is proportional to the acceptor concentration [acceptor]. BRET readings were taken well by well by adding 10 μl of 100 μM coelenterazine 400a (cat. no. C-320, GoldBio), the Rluc8 substrate to each well (final concentration of 10 μM) using the injector present in the plate reader. Luminescence emission intensities were simultaneously recorded at 410 ± 40 nm (RLU, proportional to [donor]) and 515 ± 15 nm (BRET signal).
(§6) The raw BRET ratio was calculated as the BRET signal measured at 515 nm divided by the emission signal measured at 410 nm (RLU). The BRET ratio was obtained by subtracting the raw BRET ratio by a background BRET signal measured for cells expressing only the donor ([Bacart et al., 2008]) as indicated in the formula below:
(§7) For BRET donor saturation titration experiments, the BRET ratio was plotted against the [acceptor]/[donor] ratio. Technical repeat data points were averaged, and data points from all biological repeats were collected into one graph for subsequent fitting. The BRET ratio vs. relative expression data were fitted using a binding saturation equation in the Prism (GraphPad) software to obtain BRETmax and BRET50 using the equation y=BRETmax×x/BRET50+x , where x is the relative expression and y is the BRET ratio. BRETmax represents the maximum saturation BRET signal and depends on the structural parameters (distance, orientation) of the BRET complex. BRET50 corresponds to the ratio of the acceptor construct over the donor construct required to attain 50% of the maximum BRET signal and is a measure of the effective relative affinity between the interacting BRET pair ([Marullo and Bouvier, 2007]).
When applying the DSS analysis to nanoclustering-BRET data, we used mevastatin (10 μM) to obtain the asymptote parameter (a) for the maximal inhibition effect, as it prevents the prenylation of Ras proteins, their plasma membrane trafficking, and therefore nanoclustering. Otherwise, normalized BRET ratio data were converted to % inhibition and then subsequently uploaded onto the Breeze site (see text footnote 1).

K-RasG12V/CaM = molecular target: T1, K-RasG12V/CaM (Homo sapiens, UniProt P0DP23); assay: Rluc8-K-RasG12V/GFP2-CaM interaction BRET in HEK293-EBNA cells; assay type: cell-based; settings: calmidazolium 20 μM, prostratin 20 μM, OphA 5 μM
T1 construct: expressed in transfected cells; host or cells: HEK293-EBNA
Experimental: as §5, §6, §7

[2] = 72 h, MDA-MB-231 (K-RasG13D) 3D tumorosphere, 3 days treatment, read-out: IC50
[3] = MDA-MB-231 3D tumorosphere, log scale
[4] = 72 h, Hs 578T (H-RasG12D) 3D tumorosphere, 3 days treatment, read-out: IC50
[5] = Hs 578T 3D tumorosphere, log scale, read-out: logIC50 ± SD (converted)
[6] = MDA-MB-231 3D tumorosphere, log scale, read-out: logIC50 ± SD (converted)
[7] = Hs 578T 3D tumorosphere, log scale

SMILES | IC50 (MDA-MB-231; [2]) | logIC50 ± SD (MDA-MB-231; [3]) | KRAS/HRAS mutant cell line DSS3 ratio (MDA-MB-231) | IC50 (Hs 578T; [4]) | IC50 (Hs 578T; [5]) | Kd (calmodulin (CaM)) | logIC50 ± SD (Hs 578T; [7]) | also measured
Cc1c(N2CCN(C)CC2)c2c(=O)c(C(F)(F)F)cc3ccc(C(C)C)cc1c32 [Compound 10] | > 40 µM | Inconclusive | 0.03 | 23.1 µM | 22.9 µM | – | – | Kd ± SD (calmodulin (CaM); CaM-binding affinity after 24-h incubation, F-PMCA probe): Inconclusive
Cc1c(N2CCCC2)c2c(=O)c(C(F)(F)F)cc3ccc(C(C)C)cc1c32 [Compound 11, 2-pyrrolidinylbenzazulen-3-one] | 15.4 µM | – | 1.2 | 5.2 µM | 5.89 µM | 0.81 µM | – | IC50 (MDA-MB-231; [6]): 15.5 µM; Ki (calmodulin (CaM)): 78 µM; kinact/KI (calmodulin (CaM)): 1.11 M⁻¹ s⁻¹
Cc1c(N2CCOCC2)c2c(=O)c(C(F)(F)F)cc3ccc(C(C)C)cc1c32 [Compound 9] | 19.6 µM | – | 1.3 | 17.4 µM | 17.4 µM | 1.44 µM | – | IC50 (MDA-MB-231; [6]): 19.5 µM; Ki (calmodulin (CaM)): 229 µM; kinact/KI (calmodulin (CaM)): 1.67 M⁻¹ s⁻¹
Cc1c(N)c2c(=O)c(C(F)(F)F)cc3ccc(C(C)C)cc1c32 [Compound 14] | > 40 µM | Inconclusive | 4.7 | > 40 µM | – | 21.4 µM | Inconclusive | –
CC(C)c1ccc2cc(C(F)(F)F)c(=O)c3c(N4CCCC4)c(C=O)c(c1)c23 [Compound 4] | > 40 µM | Inconclusive | 2.0 | > 40 µM | – | 39 µM | Inconclusive | –
C=CC(=O)N1CCN(c2nc(=O)n(-c3c(C)ccnc3C(C)C)c3nc(-c4c(O)cccc4F)c(F)cc23)[C@@H](C)C1 [AMG-510] | – | – | – | – | – | – | – | effect on 3D spheroid growth [1]: selectively and potently abolished the growth
CC(C)c1ccc2cc(C(F)(F)F)c(=O)c3c(NCCO)c(C=O)c(c1)c23 [Compound 6] | > 40 µM | Inconclusive | 115.5 | > 40 µM | – | 31 µM | Inconclusive | –
CCCS(=O)(=O)Nc1ccc(F)c(C(=O)c2c[nH]c3ncc(-c4ccc(Cl)cc4)cc23)c1F [vemurafenib] | – | – | – | – | – | – | – | effect on 3D spheroid growth [1]: selectively and potently abolished the growth
Cc1c(N2CCC2)c2c(=O)c(C(F)(F)F)cc3ccc(C(C)C)cc1c32 [Compound 12] | > 40 µM | Inconclusive | 0.01 | 8.5 µM | 7.94 µM | 6.1 µM | – | –
CC(C)c1ccc2cc(C(F)(F)F)c(=O)c3c(N4CCC4)c(C=O)c(c1)c23 [Compound 5] | 34.5 µM | – | 0.7 | 13.2 µM | 13.2 µM | 29 µM | – | IC50 (MDA-MB-231; [6]): 34.7 µM
CC(C)c1ccc2cc(C(F)(F)F)c(=O)c3c(N4CCOCC4)c(C=O)c(c1)c23 [Compound 2] | 22.8 µM | – | 3.3 | 24.9 µM | 24.5 µM | 0.23 µM | – | IC50 (MDA-MB-231; [6]): 22.9 µM; Ki (calmodulin (CaM)): 13 µM; affinity for CaM relative to OphA (calmodulin (CaM); after 24-h incubation, higher affinity than OphA): 15 fold; kinact/KI (calmodulin (CaM)): 25.8 M⁻¹ s⁻¹
CC[C@H](C)C(=O)O[C@H]1CCC=C2C=C[C@H](C)[C@H](CC[C@@H]3C[C@@H](O)CC(=O)O3)[C@H]21 [mevastatin] | – | – | – | – | – | – | – | time-dependent change of K-RasG12V nanoclustering-BRET signal (K-RasG12V; 2-h treatment timeframe, OphA 10 μM): did not cause any reduction in the BRET signal; K-Ras selective reduction of nanoclustering-BRET (K-Ras vs H-Ras) (K-RasG12V): fairly indiscriminately
Cc1c(NCCO)c2c(=O)c(C(F)(F)F)cc3ccc(C(C)C)cc1c32 [Compound 13] | > 40 µM | Inconclusive | 14.5 | > 40 µM | – | 62 µM | Inconclusive | –
CC(=O)O[C@@]12C[C@@H](C)[C@@]3(O)[C@@H](C=C(CO)C[C@]4(O)C(=O)C(C)=C[C@@H]34)[C@@H]1C2(C)C [prostratin] | – | – | – | – | – | – | – | effect on Rluc8-K-RasG12V/GFP2-CaM BRET signal, single concentration (K-RasG12V/CaM): did not have an effect; K-Ras selective reduction of nanoclustering-BRET (K-Ras vs H-Ras) (K-RasG12V): 1.5 fold; effect on 3D spheroid growth [1]: almost no effect on cell growth
CC(C)c1ccc2cc(C(F)(F)F)c(=O)c3c(N)c(C=O)c(c1)c23 [Compound 7] | > 40 µM | Inconclusive | 2.2 | > 40 µM | – | 45 µM | Inconclusive | –
